According to US6352958B1, “Cycloimido-substituted benzofused heterocyclic herbicides” (FMC Corporation, priority 1997, dated 2002):

What was measured:
Format in all cases: in vivo
[1] = system: wheat (Triticum aestivum var. Lew); assay: Preemergence herbicidal activity, wheat; settings: Rate of Application 0.3 Kg/Ha, examined after 12-17 days
[2] = system: velvetleaf (Abutilon theophrasti); assay: Preemergence herbicidal activity, velvetleaf; settings: Rate of Application 0.3 Kg/Ha, examined after 12-17 days
[3] = system: Johnsongrass (Sorghum halepense); assay: Preemergence herbicidal activity, johnsongrass; settings: Rate of Application 0.3 Kg/Ha, examined after 12-17 days
[4] = system: common cocklebur (Xanthium strumarium L.); assay: Preemergence herbicidal activity, cocklebur; settings: Rate of Application 0.3 Kg/Ha, examined after 12-17 days
[5] = system: soybean (Glycine max var. Winchester); assay: Preemergence herbicidal activity, soybean; settings: Rate of Application 0.3 Kg/Ha, examined after 12-17 days
[6] = system: green foxtail (Setaria viridis); assay: Preemergence herbicidal activity, green foxtail; settings: Rate of Application 0.3 Kg/Ha, examined after 12-17 days
[7] = system: morningglory (Ipomea lacunosa or Ipomea hederacea); assay: Postemergence herbicidal activity, morningglory; settings: rate of application 0.3 Kg/Ha, rated after 12-17 days
[8] = system: common chickweed (Stellaria media); assay: Postemergence herbicidal activity, chickweed; settings: rate of application 0.3 Kg/Ha, rated after 12-17 days
[9] = system: soybean (Glycine max var. Winchester); assay: Postemergence herbicidal activity, soybean; settings: rate of application 0.3 Kg/Ha, rated after 12-17 days
[10] = system: wheat (Triticum aestivum var. Lew); assay: Postemergence herbicidal activity, wheat; settings: rate of application 0.3 Kg/Ha, rated after 12-17 days
[11] = system: common cocklebur (Xanthium strumarium L.); assay: Postemergence herbicidal activity, cocklebur; settings: rate of application 0.3 Kg/Ha, rated after 12-17 days
[12] = system: velvetleaf (Abutilon theophrasti); assay: Postemergence herbicidal activity, velvetleaf; settings: rate of application 0.3 Kg/Ha, rated after 12-17 days
[13] = system: field corn (Zea mays var. Pioneer 3732); assay: Postemergence herbicidal activity, corn; settings: rate of application 0.3 Kg/Ha, rated after 12-17 days
[14] = system: common chickweed (Stellaria media); assay: Preemergence herbicidal activity, chickweed; settings: Rate of Application 0.3 Kg/Ha, examined after 12-17 days
[15] = system: field corn (Zea mays var. Pioneer 3732); assay: Preemergence herbicidal activity, corn; settings: Rate of Application 0.3 Kg/Ha, examined after 12-17 days
[16] = system: blackgrass (Aloepecurus myosuroides); assay: Postemergence herbicidal activity, blackgrass; settings: rate of application 0.3 Kg/Ha, rated after 12-17 days
[17] = system: blackgrass (Aloepecurus myosuroides); assay: Preemergence herbicidal activity, blackgrass; settings: Rate of Application 0.3 Kg/Ha, examined after 12-17 days
[18] = system: Johnsongrass (Sorghum halepense); assay: Postemergence herbicidal activity, johnsongrass; settings: rate of application 0.3 Kg/Ha, rated after 12-17 days
[19] = system: morningglory (Ipomea lacunosa or Ipomea hederacea); assay: Preemergence herbicidal activity, morningglory; settings: Rate of Application 0.3 Kg/Ha, examined after 12-17 days
[20] = system: green foxtail (Setaria viridis); assay: Postemergence herbicidal activity, green foxtail; settings: rate of application 0.3 Kg/Ha, rated after 12-17 days

Compound | PREEMERGENCE HERBICIDAL ACTIVITY (% CONTROL) WHT [1] [%] | PREEMERGENCE HERBICIDAL ACTIVITY (% CONTROL) ABUTH [2] [%] | PREEMERGENCE HERBICIDAL ACTIVITY (% CONTROL) SORHA [3] [%] | PREEMERGENCE HERBICIDAL ACTIVITY (% CONTROL) XANPE [4] [%] | PREEMERGENCE HERBICIDAL ACTIVITY (% CONTROL) SOY [5] [%] | PREEMERGENCE HERBICIDAL ACTIVITY (% CONTROL) SETVI [6] [%] | Postemergence herbicidal activity (% control) IPOSS [7] [%] | Postemergence herbicidal activity (% control) STEME [8] [%] | Postemergence herbicidal activity (% control) SOY [9] [%] | Postemergence herbicidal activity (% control) WHT [10] [%] | Postemergence herbicidal activity (% control) XANPE [11] [%] | Postemergence herbicidal activity (% control) ABUTH [12] [%] | Postemergence herbicidal activity (% control) CRN [13] [%] | PREEMERGENCE HERBICIDAL ACTIVITY (% CONTROL) STEME [14] [%] | PREEMERGENCE HERBICIDAL ACTIVITY (% CONTROL) CRN [15] [%] | Postemergence herbicidal activity (% control) ALOMY [16] [%] | PREEMERGENCE HERBICIDAL ACTIVITY (% CONTROL) ALOMY [17] [%] | Postemergence herbicidal activity (% control) SORHA [18] [%] | PREEMERGENCE HERBICIDAL ACTIVITY (% CONTROL) IPOSS [19] [%] | Postemergence herbicidal activity (% control) SETVI [20] [%]
CCOC(OCC)c1cc2c(Cl)cc(F)c(-n3c(=O)cc(C(F)(F)F)n(C)c3=O)c2o1 [Compound 245] | 60 | 100 | 80 | 100 | 100 | 100 | 100 | 60 | 85 | 40 | 70 | 100 | 75 | 90 | 80 | 50 | 70 | 70 | 100 | 70
Cn1c(C(F)(F)F)cc(=O)n(-c2c(F)cc(Cl)c3[nH]c(C4CCCCC4)nc23)c1=O [Compound 373] | 70 | 100 | 90 | 100 | 100 | 100 | 100 | 100 | 100 | 80 | 100 | 100 | 100 | 100 | 90 | 100 | 70 | 100 | 100 | 100
CCOC(=O)c1cc2cccc(-n3c(=O)cc(C(F)(F)F)n(C)c3=O)c2o1 [Compound 267] | 10 | 10 | 0 | 50 | 0 | 5 | 40 | 10 | 50 | 15 | 10 | 80 | 50 | 0 | 20 | 20 | 50 | 20 | 10 | 30
Cn1c(C(F)(F)F)cc(=O)n(-c2c(F)cc(Cl)c3cc(CCCl)oc23)c1=O [Compound 236] | 70 | 100 | 100 | 100 | 100 | 100 | 100 | 100 | 100 | 75 | 100 | 100 | 90 | 100 | 95 | 80 | 80 | 100 | 100 | 100
CCCc1nc2c(-n3c(=O)cc(C(F)(F)F)n(C)c3=O)c(F)cc(Cl)c2o1 [Compound 26] | 90 | 100 | 100 | 100 | 100 | 100 | 100 | 80 | 96 | 60 | 100 | 100 | 80 | 100 | 90 | 80 | 95 | 80 | 100 | 100
CCOC(=O)CCc1nc2c(-n3c(=O)cc(C(F)(F)F)n(C)c3=O)c(F)cc(Cl)c2[nH]1 [Compound 372] | 90 | 100 | 80 | 100 | 100 | 100 | 100 | 100 | 100 | 100 | 100 | 100 | 100 | 100 | 95 | 100 | 80 | 100 | 100 | 100
CCCC(C)c1cc2c(Cl)cc(F)c(-n3c(=O)cc(C(F)(F)F)n(C)c3=O)c2o1 (stereo not shown) [Compound 229] | 70 | 100 | 100 | 95 | 100 | 100 | 100 | 100 | 95 | 60 | 100 | 100 | 80 | 100 | 90 | 70 | 80 | 100 | 100 | 100
COC(C)(C)c1cc2c(Cl)ccc(-n3c(=O)cc(C(F)(F)F)n(C)c3=O)c2o1 [Compound 251] | 90 | 100 | 100 | 100 | 90 | 100 | 100 | 100 | 95 | 70 | 95 | 100 | 90 | 95 | 95 | 100 | 90 | 95 | 100 | 100
